Structures are written as SMILES.

The target of assay [1] is T1, Tyrosine-protein kinase receptor UFO (Homo sapiens, UniProt P30530).
T1 sequence (P30530 whole entry): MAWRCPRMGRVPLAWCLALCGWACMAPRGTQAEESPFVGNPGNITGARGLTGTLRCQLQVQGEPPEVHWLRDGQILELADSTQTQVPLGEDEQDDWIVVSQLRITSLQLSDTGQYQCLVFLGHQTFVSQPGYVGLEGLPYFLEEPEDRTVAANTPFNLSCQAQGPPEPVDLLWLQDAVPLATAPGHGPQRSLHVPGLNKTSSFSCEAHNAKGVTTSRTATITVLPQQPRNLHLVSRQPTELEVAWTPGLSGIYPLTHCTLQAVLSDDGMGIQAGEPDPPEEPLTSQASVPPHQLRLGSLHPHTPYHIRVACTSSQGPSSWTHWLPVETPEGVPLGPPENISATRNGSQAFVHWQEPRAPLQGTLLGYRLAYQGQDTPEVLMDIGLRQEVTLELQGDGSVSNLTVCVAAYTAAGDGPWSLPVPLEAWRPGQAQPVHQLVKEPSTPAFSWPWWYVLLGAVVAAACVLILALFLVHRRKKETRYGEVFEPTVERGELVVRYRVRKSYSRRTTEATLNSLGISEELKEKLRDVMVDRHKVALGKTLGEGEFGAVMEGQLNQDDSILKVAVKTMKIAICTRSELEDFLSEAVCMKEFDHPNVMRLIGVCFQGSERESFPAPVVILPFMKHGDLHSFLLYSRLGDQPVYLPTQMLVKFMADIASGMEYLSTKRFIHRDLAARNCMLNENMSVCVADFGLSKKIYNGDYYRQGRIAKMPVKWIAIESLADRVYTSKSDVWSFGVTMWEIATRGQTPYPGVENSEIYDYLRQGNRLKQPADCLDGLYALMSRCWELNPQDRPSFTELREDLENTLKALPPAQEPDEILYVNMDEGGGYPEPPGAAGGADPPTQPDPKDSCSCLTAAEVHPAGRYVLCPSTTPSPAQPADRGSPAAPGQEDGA
In words: Inhibition of AXL (unknown origin) using poly [Glu, Tyr] 4:1 as substrate incubated for 60 mins in presence of ATP by ELISA.

The target of assay [2] is Mitogen-activated protein kinase 1 (Homo sapiens, UniProt P28482). The assay can be described thus: Inhibition of human full length recombinant ERK2 using myelin basic protein as substrate incubated for 40 mins in presence of [gamma33P-ATP] by radiometric scintillation counting analysis.
Chain of Mitogen-activated protein kinase 1 (P28482 whole entry): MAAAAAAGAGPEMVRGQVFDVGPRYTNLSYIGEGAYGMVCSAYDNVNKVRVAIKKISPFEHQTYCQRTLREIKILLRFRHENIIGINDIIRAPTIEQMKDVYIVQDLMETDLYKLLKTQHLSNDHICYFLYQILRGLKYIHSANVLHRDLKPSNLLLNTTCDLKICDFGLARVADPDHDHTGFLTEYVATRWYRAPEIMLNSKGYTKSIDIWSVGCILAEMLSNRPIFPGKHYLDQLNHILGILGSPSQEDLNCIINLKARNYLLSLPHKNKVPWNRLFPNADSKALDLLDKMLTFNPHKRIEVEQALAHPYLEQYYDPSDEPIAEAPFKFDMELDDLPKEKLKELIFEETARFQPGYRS

For the molecule `CC(C)n1cc(C(=O)Nc2ccc(Oc3ccnc(NC(=O)C4CC4)c3)c(F)c2)c(=O)n(-c2ccc(F)cc2)c1=O`, the IC50 in assay [1] is 0.9 nM; in assay [2], above 1000 nM.

The values are drawn from ChEMBL document CHEMBL4823249, “Discovery of a Pyrimidinedione Derivative as a Potent and Orally Bioavailable Axl Inhibitor” (J Med Chem, 2021).
